Data as given in patent US20230248717A1, “N-(3-HYDROXYPYRIDINE-2-CARBONYL)GLYCINE-BASED ANTITUMOR DRUG SENSITIZER AND APPLICATION THEREOF” (ZHEJIANG UNIVERSITY, priority 2019, published 2023).
Converted amounts (≈) assume the structure as drawn. Read-outs that look alike come from different tables or passages of the source.

Key:
[1] = test system: CT26 mouse colon cancer cells; assay: Cytotoxicity (MTT) in combination with chemotherapeutic drugs;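 note: MTT read-out taken as absorbance at 562 nm after a 3 h dye incubation, medium-only wells as blank, values averaged over three independent experiments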
Experimental: (§1) CT26 cells (MC38 cells, 4T1 cells, B16FIO cells, HePa1-6 cells, H22 cells, LLC cells, MB49 cells, P388 cells, C6 cells, BXPC-3 cells, Hela cells, MDA-MB-231 cells, A2780 cells. PC3 cells. HepG2 cells, and HGC-27 cells) were cultured at 5,000 cells/well in a 96-well plate, 100 μL of a medium was added to each well, and the cells were incubated in a 37° C. constant-temperature incubator with 5% CO2 and 95% humidity for 24 h. 100 μL of different concentrations of drugs (DOX: 0.01 μg/mL to 10 μg/mL; PTX: 0.01 μg/mL to 50 μg/mL; Cela: 0.05 μg/mL to 1 μg/mL; sensitizer: 5 μg/mL) were added to each well, while 100 lit of a medium solution was added to the blank group. After culturing for 48 h, centrifugation was conducted at 1,100 rpm for 6 min, the medium in each well was discarded, 100 μL of an 11,11T working solution was added, and the culturing was continued for 3 h. Centrifugation was conducted at 3,300 rpm. for 5 min, the MITT medium in each well was discarded, 100 pt, of the DMSO was added, and the plate was shaken for 5 min to dissolve all crystals in each well. An absorbance of the sample at 562 nm was detected by a microplate reader. Each set of data was an average of three independent experimental results on the same sample.

[2] = test system: CT26 mouse colon cancer cells;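 note: MTT read-out taken as absorbance at 562 nm after a 3 h dye incubation, medium-only wells as blank, values averaged over three independent experiments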
Experimental: as §1

[3] = test system: calreticulin in CT26 tumor cells; assay: Drug-induced immunogenic death (calreticulin, confocal); type: cell-based, mouse; settings: doxorubicin-induced CT26 tumor cells, combination with DOX vs DOX alone, 24 h
Experimental: CT26 cells were plated in confocal culture dishes, and after overnight cell adherence, different drug treatment groups were added, and the incubation was continued for 24 h. The medium was discarded, the cells were rinsed 3 times with PBS, and fixated with 4% paraformaldehyde for 10 min. The cells were rinsed 3 times with PBS for 3 min each time, a 3% BSA solution was added for blocking for 30 min at 37° C., and the blocking solution was removed with absorbent paper. 200 μuL of a calreticulin antibody (FITC-anti-CRT, 1:200) was added to each well and incubated at room temperature for I h in the dark. The cells were rinsed with PBS 3 times for 3 min each time, then a DAPI staining solution was added to each dish and incubated in the dark for 5 min. After washing three times with PBS, the cells were observed under a laser con focal microscope.

[4] = test system: Raw264.7 M2 tumor-associated macrophages (TAM2s); assay: Polarization of macrophages from M2 to M1 (PCR); type: cell-based, mouse; settings: IL-4-induced TAM2s, 5 μM, 24 h, vs untreated TAM2s
Experimental: A mouse macrophage cell line Raw264.7 was inoculated in a 24-well plate. After 12 hours of cell adhesion, the cells were further cultured for one day in a medium containing IL-4 (40 ng/mL) to induce the cells to differentiate into M2 tumor-associated macrophages (TAM2s). DMSO solutions (5 μM) of different groups of the compounds of the present disclosure were added to the TAM2s to treat for 24 h, the cells were collected and lysed, and a total RNA was extracted. The total RNA was subjected to reverse transcription and PCR experiments to detect the RNA levels of an M2 macrophage-specific protein argl and an M1 macrophage-specific protein Nos2 with an hprt gene as an internal reference.

[5] = test system: mRNA expression of PD-L1 in CT26 cells; assay: PD-L1 mRNA expression in tumor cells by qPCR; type: cell-based, mouse; settings: 5 μM, 48 h, GAPDH internal reference
Experimental: CT26 cells were inoculated in a 6-well plate at 2×10^5 cells per well and placed in a 37° C. incubator. After the cells adhered, DMSO solutions (5 μM) of the compounds of the present disclosure were added separately, and the incubation was continued for 48 h. Total RNA was lysed and extracted, and reverse transcription and PCR experiments were conducted to detect an RNA level of PD-L1 in CT26 cells, using a GAPDH gene as an internal reference.

[6] = test system: PD-L1 expression in CT26 cells; assay: PD-L1 expression in tumor cells by flow cytometry; type: cell-based, mouse; settings: 24 h, blank group 32.7%
Experimental: CT26 cells were inoculated in a 6-well plate at 2×10^4 cells per well. After the cells adhered. […] The medium was discarded, the cells were rinsed three times with PBS, and 0.2 mL of trypsin containing EDTA was added to each well. The digested cells were collected in a flow tube, and a supernatant was removed by centrifugation. The cells were resuspended in a PBS containing 5% goat serum, and an anti-mouse PD-L1 primary antibody (1 μg/1×10^6 cells) was added, and the cells were incubated at 4° C. for 30 min and washed three times with PBS. An equivalent amount of APC-labeled goat anti-rabbit secondary antibody was added and incubation was continued for 30 min; the cells were washed 3 times with PBS and subjected to flow detection on-machine.

[7] = test system: HIF-1α expression in CT26 cells; assay: HIF-1α expression in tumor cells by flow cytometry; type: cell-based, mouse; settings: 5 μM, 24 h
Experimental: CT26 cells were evenly plated in a 6-well plate at 2×10^4 cells per well. After the cells adhered, DMSO solutions (5 μM) of the different compounds of the present disclosure were added separately, and the incubation was continued for 24 h. The medium was discarded, the cells were rinsed three times with PBS, and 0.2 mL of trypsin containing EDTA was added to each well. The digested cells were collected in a flow tube, and a supernatant was removed by centrifugation; the cells were resuspended in a PBS containing 5% goat serum, and an FITC anti-mouse HIF-1α antibody (1 μg/1×10^6 cells) was added, incubated at 4° C. for 30 min, and washed three times with PBS, and subjected to flow detection on-machine.

[8] = test system: PD-L1 expression in CT26 cells; assay: PD-L1 expression in tumor cells by Western blot; type: cell-based, mouse; settings: 5 μM, 48 h
Experimental: CT26 cells were inoculated in a 6-well plate at 2×10^4 cells per well and placed in a 37° C. incubator. After the cells adhered, DMSO solutions (5 μM) of compounds 1 to 8 were added separately, and the incubation was continued for 48 h. The medium was discarded, the cells were rinsed three times with pre-cooled PBS, and the washing solution was discarded. 0.2 nrii, of a cell lysis solution containing a protease inhibitor was added to each well and placed on ice to conduct lysis for 30 min.
After the lysis was completed, a lysate and cell debris were scraped to one side of the Petri dish with a cell scraper, the lysate was transferred to a 1.5 mL Ep tube with a pipette, centrifuged at 4° C. (12,000 rpm/5 min), and a supernatant was collected to determine its protein concentration.
The protein sample was diluted with a 1UPAlysis buffer to a certain concentration, 5×SDS loading buffer was added in a protein amount of 1 μg/μL, incubated on a metal bath at 95° C. for 5 min, cooled to room temperature, and the sample was loaded to an SDS-PAGE electrophoresis gel (5% for stacking gel and 12% for resolving gel). Under a voltage of 90 V, the protein was run to the bottom of the stacking gel to form a straight line, then the voltage was adjusted to 125 V, and the electrophoresis was stopped after the bromophenol blue appeared. […]

C6 rat glioma cells = assay: Cytotoxicity (MTT) in combination with DOX; type: cell-based; settings: Glioma cell, 48 h, sensitizer 5 μg/mL in the combination
Experimental: as §1

[9] = test system: BXPC-3 human pancreatic cancer cells; assay: Cytotoxicity (MTT) in combination with DOX; type: cell-based; settings: 48 h, sensitizer 5 μg/mL in the combination
Experimental: as §1

[10] = test system: A2780 Human ovarian cancer cells; assay: Cytotoxicity (MTT) in combination with DOX; type: cell-based; settings: 48 h, sensitizer 5 μg/mL in the combination
Experimental: as §1

[11] = test system: MB49 mouse bladder cancer cells; assay: Cytotoxicity (MTT) in combination with DOX; type: cell-based; settings: 48 h, sensitizer 5 μg/mL in the combination
Experimental: as §1

[12] = test system: 4T1 mouse breast cancer cells; assay: Cytotoxicity (MTT) in combination with DOX; type: cell-based; settings: 48 h, sensitizer 5 μg/mL in the combination
Experimental: as §1

[13] = test system: MC38 mouse colon cancer cells; assay: Cytotoxicity (MTT) in combination with DOX; type: cell-based; settings: MC-38, 48 h, sensitizer 5 μg/mL in the combination
Experimental: as §1

[14] = test system: P388 mouse lymphoma cells; assay: Cytotoxicity (MTT) in combination with DOX; type: cell-based; settings: 48 h, sensitizer 5 μg/mL in the combination
Experimental: as §1

[15] = test system: MDA-MB-231 human breast cancer cells; assay: Cytotoxicity (MTT) in combination with DOX; type: cell-based; settings: 48 h, sensitizer 5 μg/mL in the combination
Experimental: as §1

[16] = test system: HePa1-6 mouse hepatoma cells; assay: Cytotoxicity (MTT) in combination with DOX; type: cell-based; settings: 48 h, sensitizer 5 μg/mL in the combination
Experimental: as §1

[17] = test system: Hela human cervical cancer cells; assay: Cytotoxicity (MTT) in combination with DOX; type: cell-based; settings: 48 h, sensitizer 5 μg/mL in the combination
Experimental: as §1

[18] = test system: B16F10 mouse melanoma cells; assay: Cytotoxicity (MTT) in combination with DOX; type: cell-based; settings: B16-F10, 48 h, sensitizer 5 μg/mL in the combination
Experimental: as §1

[19] = test system: PC3 human prostate cancer cells; assay: Cytotoxicity (MTT) in combination with DOX; type: cell-based; settings: 48 h, sensitizer 5 μg/mL in the combination
Experimental: as §1

[20] = test system: HepG2 human hepatoma cells; assay: Cytotoxicity (MTT) in combination with DOX; type: cell-based; settings: 48 h, sensitizer 5 μg/mL in the combination
Experimental: as §1

[21] = test system: HGC-27 human gastric cancer cells; assay: Cytotoxicity (MTT) in combination with DOX; type: cell-based; settings: 48 h, sensitizer 5 μg/mL in the combination
Experimental: as §1

H22 mouse hepatoma cells = assay: Cytotoxicity (MTT) in combination with DOX; type: cell-based; settings: 48 h, sensitizer 5 μg/mL in the combination
Experimental: as §1

[22] = test system: LLC mouse lung cancer cells; assay: Cytotoxicity (MTT) in combination with DOX; type: cell-based; settings: 48 h, sensitizer 5 μg/mL in the combination
Experimental: as §1

[23] = CT26 cell line, chemotherapeutic drug in combination with compound 7 (sensitizer 5 μg/mL), 48 h

`O=C1[O][Pt]2([NH][C@@H]3CCCC[C@H]3[NH]2)[O]C1=O` [Eloxatin] was tested, and the “IC50, Compound 7+” value [1, 23] was 2.497 ± 0.185 µg/mL.
`O=C1c2c(O)ccc(O)c2C(=O)c2c(NCCNCCO)ccc(NCCNCCO)c21` [Mitoxantrone] was tested, and the IC50 [2] was 2.12 ± 0.297 µg/mL (≈ 4.76 µM) and the “IC50, Compound 7+” value [1, 23] was 0.815 ± 0.021 µg/mL.
With `CCc1c2c(nc3ccc(OC(=O)N4CCC(N5CCCCC5)CC4)cc13)-c1cc3c(c(=O)n1C2)COC(=O)[C@]3(O)CC` [Irinotecan] the IC50 [2] was 2.42 ± 0.197 µg/mL (≈ 4.12 µM) and the “IC50, Compound 7+” value [1, 23] was 1.415 ± 0.022 µg/mL.
For `Cc1nc(C(=O)NCC(=O)O)c(O)c2ccc(Oc3ccccc3)cc12` [compound 7, N-(4-Hydroxy-1-methyl-7-phenoxyisoquinoline-3-carbonyl)glycine], the “calreticulin expression (immunogenic death)” value [3] was “express more calreticulin”, the “RNA level of M1 macrophage-specific protein Nos2” value [4] was “significantly increased” and the “RNA level of M2 macrophage-specific protein argl” value [4] was “significantly decreased”. For the same compound, the “mRNA expression level of PD-L1” value [5] was “best effect”, the PD-L1 expression rate ([6]; 10 μM compound 7 group) was 18.8% and the PD-L1 expression rate ([6]; 2.5 compound 7 group) was 24%. The PD-L1 expression rate ([6]; 5 1μM compound 7 group) was 20.8%, the “reduction of HIF-1α” value [7] was 45% and the “expression of HIF-1α in tumor cells” value ([7]; vs blank control) was “best effect”. For the same compound, the “expression of PD-L1 in tumor cells (Western blot)” value [8] was “best effect”, the “cell viability, combination with chemotherapeutic drug DOX vs chemotherapeutic drug alone” value ([1]; CT26 cells, sensitizer 5 μg/mL, 48 h) was “best effect” and the “toxicity of doxorubicin (DOX), paclitaxel (PTX), oxaliplatin (OXA) or camptothecin (irinotecan, SN38) on CT26 cells” value ([1]; combination with compound 7, 48 h) was “increase the toxicity”.
For `O=C1[O][Pt]2([NH][C@@H]3CCCC[C@H]3[NH]2)[O]C1=O` [Oxaliplatin], the “IC50, Compound 7+” value [1] was 0.197 ± 0.022 µg/mL and the “IC50, Compound 7−” value [1] was 0.650 ± 0.009 µg/mL.
In the case of `COc1cccc2c1C(=O)c1c(O)c3c(c(O)c1C2=O)C[C@@](O)(C(=O)CO)C[C@@H]3O[C@H]1C[C@H](N)[C@H](O)[C@H](C)O1` [DOX, doxorubicin], the IC50 (C6 rat glioma cells) is reported as 0.119 ± 0.026 µg/mL, the IC50 [9] is reported as 14.2 ± 1.68 µg/mL and the IC50 [10] is reported as 10.1 ± 1.24 µg/mL. The IC50 [11] was 0.447 ± 0.022 µg/mL, the IC50 [12] was 1.76 ± 0.221 µg/mL and the IC50 [13] was 0.411 ± 0.017 µg/mL. The IC50 [14] was 0.197 ± 0.029 µg/mL, the IC50 [15] was 3.57 ± 0.153 µg/mL and the IC50 [16] was 1.35 ± 0.331 µg/mL. The IC50 [17] was 2.77 ± 0.492 µg/mL, the IC50 [18] was 0.214 ± 0.011 µg/mL and the IC50 [19] was 2.32 ± 0.195 µg/mL. It also gave an IC50 [20] of 3.45 ± 0.778 µg/mL, an IC50 [21] of 1.82 ± 0.227 µg/mL and an IC50 ([1]; Mus musculus, CT26, 48 h) of 0.256 ± 0.017 µg/mL. The IC50 (H22 mouse hepatoma cells) was 5.13 ± 0.119 µg/mL and the IC50 [22] was 0.088 ± 0.007 µg/mL.
For `N.N.O=C([O-])C1(C(=O)[O-])CCC1.[Pt+2]` [Carboplatin], the IC50 [2] was 0.761 ± 0.044 µg/mL and the “IC50, Compound 7+” value [1, 23] was 0.192 ± 0.052 µg/mL.
